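1) Cells in 96-well plates. 2) Compound, 48 h, 5 concentrations. 3) Linear interpolation between surrounding doses. 4) Unreached endpoint = highest concentration. GI50 is the concentration that inhibits growth by half.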 Activity calls are given as the source filed them. No stated cut-off is given here; in the data, active = GI50 up to about 1.1 µM and inactive = higher.
What was measured:
Assay in all cases: DTP human tumour cell line panel, 48 h
SN12C = test system: SN12C
UO-31 = test system: UO-31
UACC-257 = test system: UACC-257
KM12 = test system: KM12
NCI-H23 = test system: NCI-H23
RXF 393 = test system: RXF 393
Malme-3M = test system: Malme-3M
OVCAR-8 = test system: OVCAR-8
HCT-116 = test system: HCT-116
SW-620 = test system: SW-620
T47D = test system: T47D
OVCAR-4 = test system: OVCAR-4
SK-MEL-28 = test system: SK-MEL-28
SR = test system: SR
SK-OV-3 = test system: SK-OV-3
MDA-MB-435 = test system: MDA-MB-435
SK-MEL-5 = test system: SK-MEL-5
DU-145 = test system: DU-145
MCF7 = test system: MCF7
MDA-N = test system: MDA-N
786-0 = test system: 786-0
OVCAR-5 = test system: OVCAR-5
K562 = test system: K562
SF-539 = test system: SF-539
HOP-92 = test system: HOP-92
RPMI-8226 = test system: RPMI-8226
CAKI-1 = test system: CAKI-1
PC-3 = test system: PC-3
A549 = test system: A549
ACHN = test system: ACHN
NCI-H522 = test system: NCI-H522
Hs-578T = test system: Hs-578T
SK-MEL-2 = test system: SK-MEL-2
NCI-H460 = test system: NCI-H460
M14 = test system: M14
IGROV-1 = test system: IGROV-1
SNB-19 = test system: SNB-19
SF-295 = test system: SF-295
CCRF-CEM = test system: CCRF-CEM
NCI-H226 = test system: NCI-H226
NCI/ADR-RES = test system: NCI/ADR-RES
A498 = test system: A498
UACC-62 = test system: UACC-62
SF-268 = test system: SF-268
EKVX = test system: EKVX
SNB-75 = test system: SNB-75
HT-29 = test system: HT-29
U-251 = test system: U-251
MOLT-4 = test system: MOLT-4
HCT-15 = test system: HCT-15
HOP-62 = test system: HOP-62
COLO 205 = test system: COLO 205
MDA-MB-231 = test system: MDA-MB-231
LOX IMVI = test system: LOX IMVI
OVCAR-3 = test system: OVCAR-3
BT-549 = test system: BT-549
HCC 2998 = test system: HCC 2998
TK-10 = test system: TK-10
HL-60 = test system: HL-60

CN(C)CCCNc1c(C#N)[n+]([O-])c2cc(Cl)ccc2[n+]1[O-]
GI50 (SN12C): 17.9 µM (inactive) | GI50 (UO-31): 13.4 µM (inactive) | GI50 (UACC-257): 17.7 µM (inactive) | GI50 (KM12): 7.73 µM (inactive) | GI50 (NCI-H23): 7.74 µM (inactive) | GI50 (RXF 393): 21.2 µM (inactive) | GI50 (Malme-3M): 3.85 µM (inactive) | GI50 (OVCAR-8): 11.7 µM (inactive) | GI50 (HCT-116): 7.18 µM (inactive) | GI50 (SW-620): 9.14 µM (inactive) | GI50 (T47D): 11.4 µM (inactive) | GI50 (OVCAR-4): 4.75 µM (inactive) | GI50 (SK-MEL-28): 65.5 µM (inactive) | GI50 (SR): 0.867 µM (active) | GI50 (SK-OV-3): 18.3 µM (inactive) | GI50 (MDA-MB-435): 17.3 µM (inactive) | GI50 (SK-MEL-5): 5.02 µM (inactive) | GI50 (DU-145): 21.2 µM (inactive) | GI50 (MCF7): 9.38 µM (inactive) | GI50 (MDA-N): 17.7 µM (inactive) | GI50 (786-0): 9.95 µM (inactive) | GI50 (OVCAR-5): > 61.7 µM (inactive) | GI50 (K562): 3.92 µM (inactive) | GI50 (SF-539): 14.1 µM (inactive) | GI50 (HOP-92): 2.69 µM (inactive) | GI50 (RPMI-8226): 3.27 µM (inactive) | GI50 (CAKI-1): 7.91 µM (inactive) | GI50 (PC-3): 4.91 µM (inactive) | GI50 (A549): 7.67 µM (inactive) | GI50 (ACHN): 5.5 µM (inactive) | GI50 (NCI-H522): 3.1 µM (inactive) | GI50 (Hs-578T): 31.6 µM (inactive) | GI50 (SK-MEL-2): 9.62 µM (inactive) | GI50 (NCI-H460): 2.62 µM (inactive) | GI50 (M14): 8.13 µM (inactive) | GI50 (IGROV-1): 1.71 µM (inactive) | GI50 (SNB-19): 26.2 µM (inactive) | GI50 (SF-295): 10.6 µM (inactive) | GI50 (CCRF-CEM): 3.21 µM (inactive) | GI50 (NCI-H226): 12.4 µM (inactive) | GI50 (NCI/ADR-RES): 13.2 µM (inactive) | GI50 (A498): 22.1 µM (inactive) | GI50 (UACC-62): 5.48 µM (inactive) | GI50 (SF-268): 8.89 µM (inactive) | GI50 (EKVX): 5.78 µM (inactive) | GI50 (SNB-75): 31.9 µM (inactive) | GI50 (HT-29): 5.58 µM (inactive) | GI50 (U-251): 15.2 µM (inactive) | GI50 (MOLT-4): 1.18 µM (inactive) | GI50 (HCT-15): 3.75 µM | GI50 (HOP-62): 11.4 µM (inactive) | GI50 (COLO 205): 4.84 µM (inactive) | GI50 (MDA-MB-231): 10.4 µM (inactive) | GI50 (LOX IMVI): 10.2 µM (inactive) | GI50 (OVCAR-3): 5.68 µM (inactive) | GI50 (BT-549): 6.79 µM (inactive) | GI50 (HCC 2998): 5.53 µM (inactive) | GI50 (TK-10): 6.4 µM (inactive)

Nc1ncnc2c1ncn2[C@H]1CC[C@@H](NO)C1
GI50 (SN12C): > 100 µM (inactive) | GI50 (UO-31): > 100 µM (inactive) | GI50 (UACC-257): > 100 µM (inactive) | GI50 (KM12): > 100 µM (inactive) | GI50 (NCI-H23): > 100 µM (inactive) | GI50 (RXF 393): > 100 µM (inactive) | GI50 (Malme-3M): > 100 µM (inactive) | GI50 (OVCAR-8): > 100 µM (inactive) | GI50 (HCT-116): > 100 µM (inactive) | GI50 (SW-620): > 100 µM (inactive) | GI50 (T47D): > 100 µM (inactive) | GI50 (OVCAR-4): > 100 µM (inactive) | GI50 (SK-MEL-28): > 100 µM (inactive) | GI50 (SR): > 100 µM (inactive) | GI50 (SK-OV-3): > 100 µM (inactive) | GI50 (MDA-MB-435): > 100 µM (inactive) | GI50 (SK-MEL-5): > 100 µM (inactive) | GI50 (DU-145): > 100 µM (inactive) | GI50 (MCF7): > 100 µM (inactive) | GI50 (MDA-N): > 100 µM (inactive) | GI50 (786-0): > 100 µM (inactive) | GI50 (OVCAR-5): > 100 µM (inactive) | GI50 (K562): > 100 µM (inactive) | GI50 (SF-539): > 100 µM (inactive) | GI50 (HOP-92): > 100 µM (inactive) | GI50 (RPMI-8226): > 100 µM (inactive) | GI50 (CAKI-1): > 100 µM (inactive) | GI50 (PC-3): > 100 µM (inactive) | GI50 (A549): > 100 µM (inactive) | GI50 (ACHN): > 100 µM (inactive) | GI50 (NCI-H522): > 100 µM (inactive) | GI50 (Hs-578T): > 100 µM (inactive) | GI50 (SK-MEL-2): > 100 µM (inactive) | GI50 (NCI-H460): > 100 µM (inactive) | GI50 (M14): > 100 µM (inactive) | GI50 (IGROV-1): > 100 µM (inactive) | GI50 (SNB-19): > 100 µM (inactive) | GI50 (SF-295): > 100 µM (inactive) | GI50 (CCRF-CEM): > 100 µM (inactive) | GI50 (NCI-H226): > 100 µM (inactive) | GI50 (NCI/ADR-RES): > 100 µM (inactive) | GI50 (A498): > 100 µM (inactive) | GI50 (UACC-62): > 100 µM (inactive) | GI50 (SF-268): > 100 µM (inactive) | GI50 (EKVX): > 100 µM (inactive) | GI50 (SNB-75): > 100 µM (inactive) | GI50 (U-251): > 100 µM (inactive) | GI50 (MOLT-4): > 100 µM (inactive) | GI50 (HCT-15): > 100 µM | GI50 (HOP-62): > 100 µM (inactive) | GI50 (COLO 205): > 100 µM (inactive) | GI50 (MDA-MB-231): > 100 µM (inactive) | GI50 (LOX IMVI): > 100 µM (inactive) | GI50 (OVCAR-3): > 100 µM (inactive) | GI50 (BT-549): > 100 µM (inactive) | GI50 (HCC 2998): > 100 µM (inactive) | GI50 (TK-10): > 100 µM (inactive)

C/C=C1/CN2CCC34c5ccccc5N(C)C23C2CC1C4(C(=O)OC)C(OC(C)=O)O2 (configuration not stated)
GI50 (SN12C): > 100 µM (inactive) | GI50 (HL-60): > 100 µM (inactive) | GI50 (UO-31): > 100 µM (inactive) | GI50 (UACC-257): > 100 µM (inactive) | GI50 (KM12): > 100 µM (inactive) | GI50 (NCI-H23): > 100 µM (inactive) | GI50 (OVCAR-8): > 100 µM (inactive) | GI50 (HCT-116): > 100 µM (inactive) | GI50 (SW-620): > 100 µM (inactive) | GI50 (T47D): > 100 µM (inactive) | GI50 (OVCAR-4): > 100 µM (inactive) | GI50 (SK-MEL-28): > 100 µM (inactive) | GI50 (SR): > 100 µM (inactive) | GI50 (SK-OV-3): > 100 µM (inactive) | GI50 (MDA-MB-435): > 100 µM (inactive) | GI50 (SK-MEL-5): > 100 µM (inactive) | GI50 (DU-145): > 100 µM (inactive) | GI50 (MCF7): > 100 µM (inactive) | GI50 (MDA-N): > 100 µM (inactive) | GI50 (786-0): > 100 µM (inactive) | GI50 (OVCAR-5): > 100 µM (inactive) | GI50 (K562): > 100 µM (inactive) | GI50 (SF-539): > 100 µM (inactive) | GI50 (HOP-92): > 100 µM (inactive) | GI50 (RPMI-8226): > 100 µM (inactive) | GI50 (CAKI-1): > 100 µM (inactive) | GI50 (PC-3): > 100 µM (inactive) | GI50 (A549): > 100 µM (inactive) | GI50 (ACHN): > 100 µM (inactive) | GI50 (NCI-H522): > 100 µM (inactive) | GI50 (Hs-578T): > 100 µM (inactive) | GI50 (SK-MEL-2): > 100 µM (inactive) | GI50 (NCI-H460): > 100 µM (inactive) | GI50 (M14): > 100 µM (inactive) | GI50 (IGROV-1): > 100 µM (inactive) | GI50 (SNB-19): > 100 µM (inactive) | GI50 (SF-295): > 100 µM (inactive) | GI50 (CCRF-CEM): > 100 µM (inactive) | GI50 (NCI-H226): > 100 µM (inactive) | GI50 (NCI/ADR-RES): > 100 µM (inactive) | GI50 (A498): > 100 µM (inactive) | GI50 (UACC-62): > 100 µM (inactive) | GI50 (SF-268): > 100 µM (inactive) | GI50 (EKVX): > 100 µM (inactive) | GI50 (SNB-75): > 100 µM (inactive) | GI50 (HT-29): > 100 µM (inactive) | GI50 (U-251): > 100 µM (inactive) | GI50 (MOLT-4): > 100 µM (inactive) | GI50 (HCT-15): > 100 µM | GI50 (HOP-62): > 100 µM (inactive) | GI50 (COLO 205): > 100 µM (inactive) | GI50 (MDA-MB-231): > 100 µM (inactive) | GI50 (LOX IMVI): > 100 µM (inactive) | GI50 (OVCAR-3): > 100 µM (inactive) | GI50 (BT-549): > 100 µM (inactive) | GI50 (HCC 2998): > 100 µM (inactive) | GI50 (TK-10): > 100 µM (inactive)
